Experimental data published in patent US20120101284A1, “METHOD FOR SCREENING INHIBITOR FOR INHIBITING INTERACTION BETWEEN BETA-AMYLOID PEPTIDE AND VEGF AND INHIBITOR SEARCHED BY THE SAME” (INNOPHARMASCREEN INC., priority 2009, published 2012).
Values belong to the molecule of their own block, whether it stands above or below them.

Columns and labels:
SH-SY5Y cell [1] = assay: Inhibition of cytotoxicity of beta-amyloid by screened material (MTT assay); format: cell-based; details: standard of 10 μM beta-amyloid, at more than 5 μM, 24 hours
Experimental: The SH-SY5Y cells were added to 96-well tissue culture plate to be the cell concentration of 1×10^4 per well.

SH-SY5Y cell [2] = test system: SH-SY5Y cell
Description: PC12 Cell (Korean Cell Line Bank, Seoul, Korea) was maintained in the mixed solution of RPMI1640 (Welgene, Daegu, Korea) containing 1× Antibiotic-Antimycotic (GIBCO, N.Y., USA) and 10% FBS (Fetal Bovine Serum) (Welgene, Daegu, Korea). SH-SY5Y cell (Korean Cell Line Bank, Seoul, Korea) was maintained in the mixed solution of DMED/F12 (Welgene, Daegu, Korea) containing 1× Antibiotic-Antimycotic (GIBCO, N.Y., USA) and 10% FBS (Fetal Bovine Serum) (Welgene, Daegu, Korea). The PC12 and SH-SY5Y culture cells were maintained under the conditions of 100% humidity and 37° C. in the environment for supplying gas components with further 5% carbon dioxide.
It was performed according to a MTT [(3-(4,5-dimethylthiazol-2yl-2,5-diphenyl-2H-tetrazoilum bromide] experiment protocol. MTT was dissolved in PBS to be 5 mg/ml and then stored at 4° C. to use. After completing the reaction, 10 μl of 5 mg/ml MTT solution was added to 100 culture mixed solution of each well and then reacted for 3 hours. The supernatant of each well was discarded, and then a chromophoric reactant (Formazancrystal) was dissolved in 100 μl of DMSO; and then an absorbance was measured using ELISA reader (595 nm).
The PC12 cells were added to each of wells of Poly-D-lysine-coated 96-well tissue culture plate (Corning, Mass., USA) to be the cell concentration of 2×10^4 per well. […]

[3] = target: T1, binding between the beta-amyloid 1-42 peptide and VEGF165 (Homo sapiens, UniProt P15692); assay: Protein chip screening of inhibitors of the binding between beta-amyloid and VEGF165; details: first screening, VEGF165 50 μg/ml, single concentration
T1 construct: purchased R&D System, Inc. (VEGF165); Bachem AG (beta-amyloid)
T1 sequence (P15692 27-191 isoform P15692-4): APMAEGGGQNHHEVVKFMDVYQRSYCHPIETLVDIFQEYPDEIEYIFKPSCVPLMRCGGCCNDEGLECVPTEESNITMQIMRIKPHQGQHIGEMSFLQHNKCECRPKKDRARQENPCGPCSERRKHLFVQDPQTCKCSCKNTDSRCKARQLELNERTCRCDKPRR
Experimental: ProteoChip™ (Proteogen Inc., Seoul, Korea) was used as a substrate to fix a protein. A sheet paper was adhered on the substrate to prepare Well-Chip. A beta-amyloid (Bachem AG, Bubendorf, Switzerland) was diluted with a phosphate-buffered saline (PBS) containing 30% glycerol solution to be 50 μg/ml; then added to each well; reacted at 30° C. in a humidity incubator, overnight; the beta-amyloid remained after combining was washed with a phosphate-buffered saline containing 0.05% tween-20 (0.05% PBST); dried with a nitrogen gas; and then a high-speed-high throughput screening was performed.
A mixed solution was prepared by mixing VEGF165 (50 μg/ml) and 130 compounds (50 μM) derived from a natural material obtained in Example 1 in order to experiment the inhibition of the binding between the beta-amyloid and VEGF165. […]
The beta-amyloid-tagged protein chip prepared in Example 2 was blocked with 3% BSA for 2 hours; then washed with 0.05% PBST twice; and then dried with a nitrogen gas. […] It was washed with the washing solution; then dried using a nitrogen gas; a primary antibody was added to each of wells; then reacted at 30° C. in a humidity incubator for 30 minutes; washed with the washing solution; and then dried with the nitrogen gas to measure an inhibition ability of library by analyzing the binding degree with the relative fluorescence intensity using a fluorescence laser scanner. […]

Molecule: NCCCS(=O)(=O)O [Alzhemed™]
survival rate of cell increased (SH-SY5Y cell [1]): about 30%

Molecule: beta-amyloid 1-42: forward-synthesized beta-amyloid 1-42 peptide
survival rate of cell (SH-SY5Y cell [2]): decreased in proportion as the concentration increase

inhibition of the interaction between beta-amyloid 1-42 peptide and VEGF165 (relative fluorescence intensity) [3]: inhibited
Molecule: heparin
